Test results as given in patent US12390441B2, “Immunomodulating o-het/aryl azalides” (Zoetis Services LLC, priority 2020, dated 2025).
pIC50: −log10 of the molar value.

What was measured:
Experiment in all cases: Whole blood assay, LPS stimulation, MSD cytokine detection
TNF-α = type: cell-based; details: fresh whole bovine blood
Method: (§1) Compounds of the invention were evaluated against a positive control for their ability to inhibit LPS-induced IL-1p and TNF-α as an overall evaluation of relative potency and modulation of target pathways.
(§2) In the bovine whole blood in vitro screening assay the inhibition of TNFα as induced by stimulation by lipopolysaccharide (LPS) and as measured by half the maximal inhibitory concentration (IC50) is recognized as the primary biomarker of immunomodulation potency upon pretreatment with the compounds of the invention. IL-1β is a mediator of the inflammation response and is involved in a number of cellular activities including proliferation, differentiation and apoptosis. IL-1β is also released upon cellular stress or cytotoxicity or upon TLR stimulation. In the bovine whole blood assay the stimulation of IL-1β release upon increasing concentration of test compound is seen as a potential cellular toxicity signal as induced by the test compound. In order to estimate a therapeutic index from the in vitro assay a differential between the TNFα IC50 (immunomodulation potency) versus the perceived cellular toxicity concentration (IL-1β release or overstimulation) was utilized. […] As the in vitro assay index approaches 1 it is proposed that the balance between immunomodulation and cytotoxicity would be too narrow in order to achieve an efficacious dose in vivo.

IL-1β = type: cell-based, bovine; details: fresh whole bovine blood, LPS stimulation; drug concentration giving overstimulation (OS) of IL-1β
Method: as §1, §2

IL-6 = type: cell-based; details: fresh whole bovine blood

| Compound | pIC50 (TNF-α) | IL-1ß OS of LPS (IL-1β) [µM] | pIC50 (IL-6) |
| --- | --- | --- | --- |
| CCCNC[C@]1(O)[C@H](C)O[C@@H](O[C@H]2[C@H](C)[C@@H](O[C@@H]3O[C@H](C)C[C@H](NC)[C@H]3Oc3ccccc3OCC)[C@](C)(O)C[C@@H](C)CN[C@H](C)[C@@H](O)[C@](C)(O)[C@@H](CC)OC(=O)[C@@H]2C)C[C@@]1(C)OC [Example E-78] | 4.80 | 17 | 4.27 |
| CCCNC[C@]1(O)[C@H](C)O[C@@H](O[C@H]2[C@H](C)[C@@H](O[C@@H]3O[C@H](C)C[C@H](NC)[C@H]3Oc3ccc(S(C)(=O)=O)cc3)[C@](C)(O)C[C@@H](C)CN[C@H](C)[C@@H](O)[C@](C)(O)[C@@H](CC)OC(=O)[C@@H]2C)C[C@@]1(C)OC [Example E-80] | 4.35 | >250 | 4.19 |
| CCCNC[C@]1(O)[C@H](C)O[C@@H](O[C@H]2[C@H](C)[C@@H](O[C@@H]3O[C@H](C)C[C@H](NC)[C@H]3Oc3ccc(C(N)=O)cc3)[C@](C)(O)C[C@@H](C)CN[C@H](C)[C@@H](O)[C@](C)(O)[C@@H](CC)OC(=O)[C@@H]2C)C[C@@]1(C)OC [Example E-110] | 3.90 | >500 | 3.76 |
| CC[C@H]1OC(=O)[C@H](C)[C@@H](O[C@H]2C[C@@](C)(OC)[C@](O)(CN(C)CCN(C)C)[C@H](C)O2)[C@H](C)[C@@H](O[C@@H]2O[C@H](C)C[C@H](N(C)C)[C@H]2Oc2ccc(F)cc2)[C@](C)(O)C[C@@H](C)CN[C@H](C)[C@@H](O)[C@]1(C)O [Example E-113] | 4.77 | 40 | 4.40 |
| CC[C@H]1OC(=O)[C@H](C)[C@@H](O[C@H]2C[C@@](C)(OC)[C@](O)(CNCCN(C)C)[C@H](C)O2)[C@H](C)[C@@H](O[C@@H]2O[C@H](C)C[C@H](N(C)C)[C@H]2Oc2ccc(F)cc2)[C@](C)(O)C[C@@H](C)CN[C@H](C)[C@@H](O)[C@]1(C)O [Example E-114] | 4.89 | 40 | 4.28 |
| CC[C@H]1OC(=O)[C@H](C)[C@@H](O[C@H]2C[C@@](C)(OC)[C@](O)(CNCCOC)[C@H](C)O2)[C@H](C)[C@@H](O[C@@H]2O[C@H](C)C[C@H](N(C)C)[C@H]2Oc2ccc(F)cc2)[C@](C)(O)C[C@@H](C)CN[C@H](C)[C@@H](O)[C@]1(C)O [Example E-116] | 5.30 | 16 | 5.00 |
| CC[C@H]1OC(=O)[C@H](C)[C@@H](O[C@H]2C[C@@](C)(OC)[C@](O)(CNC(C)C)[C@H](C)O2)[C@H](C)[C@@H](O[C@@H]2O[C@H](C)C[C@H](N(C)C)[C@H]2Oc2ccc(F)cc2)[C@](C)(O)C[C@@H](C)CN[C@H](C)[C@@H](O)[C@]1(C)O [Example E-117] | 5.22 | 16 | 4.96 |
| CC[C@H]1OC(=O)[C@H](C)[C@@H](O[C@H]2C[C@@](C)(OC)[C@](O)(CNC3CCOCC3)[C@H](C)O2)[C@H](C)[C@@H](O[C@@H]2O[C@H](C)C[C@H](N(C)C)[C@H]2Oc2ccccc2)[C@](C)(O)C[C@@H](C)CN[C@H](C)[C@@H](O)[C@]1(C)O [Example E-120] | 5.10 | 16 | 4.96 |
| CC[C@H]1OC(=O)[C@H](C)[C@@H](O[C@H]2C[C@@](C)(OC)[C@](O)(CNC3CC3)[C@H](C)O2)[C@H](C)[C@@H](O[C@@H]2O[C@H](C)C[C@H](NC)[C@H]2Oc2ccccc2)[C@](C)(O)C[C@@H](C)CN[C@H](C)[C@@H](O)[C@]1(C)O [Example E-125] | 5.30 | 16 | 5.10 |
| CC[C@H]1OC(=O)[C@H](C)[C@@H](O[C@H]2C[C@@](C)(OC)[C@](O)(CNC(C)C)[C@H](C)O2)[C@H](C)[C@@H](O[C@@H]2O[C@H](C)C[C@H](NC)[C@H]2Oc2ccccc2)[C@](C)(O)C[C@@H](C)CN[C@H](C)[C@@H](O)[C@]1(C)O [Example E-127] | 4.72 | 40 | 4.36 |
| CC[C@H]1OC(=O)[C@H](C)[C@@H](O[C@H]2C[C@@](C)(OC)[C@](O)(CN(C)CCN(C)C)[C@H](C)O2)[C@H](C)[C@@H](O[C@@H]2O[C@H](C)C[C@H](NC)[C@H]2Oc2ccccc2)[C@](C)(O)C[C@@H](C)CN[C@H](C)[C@@H](O)[C@]1(C)O [Example E-128] | 4.00 | 100 | 3.83 |
| CC[C@H]1OC(=O)[C@H](C)[C@@H](O[C@H]2C[C@@](C)(OC)[C@](O)(CNCCOC)[C@H](C)O2)[C@H](C)[C@@H](O[C@@H]2O[C@H](C)C[C@H](NC)[C@H]2Oc2ccccc2)[C@](C)(O)C[C@@H](C)CN[C@H](C)[C@@H](O)[C@]1(C)O [Example E-130] | 4.49 | 40 | 4.15 |
| CC[C@H]1OC(=O)[C@H](C)[C@@H](O[C@H]2C[C@@](C)(OC)[C@](O)(CNCCCOC)[C@H](C)O2)[C@H](C)[C@@H](O[C@@H]2O[C@H](C)C[C@H](NC)[C@H]2Oc2ccccc2)[C@](C)(O)C[C@@H](C)CN[C@H](C)[C@@H](O)[C@]1(C)O [Example E-131] | 4.46 | 100 | 4.28 |
| CC[C@H]1OC(=O)[C@H](C)[C@@H](O[C@H]2C[C@@](C)(OC)[C@](O)(CNCC3CC3)[C@H](C)O2)[C@H](C)[C@@H](O[C@@H]2O[C@H](C)C[C@H](NC)[C@H]2Oc2ccccc2)[C@](C)(O)C[C@@H](C)CN[C@H](C)[C@@H](O)[C@]1(C)O [Example E-132] | 4.51 | 100 | 4.22 |
| CC[C@H]1OC(=O)[C@H](C)[C@@H](O[C@H]2C[C@@](C)(OC)[C@](O)(CNn3ccnc3)[C@H](C)O2)[C@H](C)[C@@H](O[C@@H]2O[C@H](C)C[C@H](NC)[C@H]2Oc2ccccc2)[C@](C)(O)C[C@@H](C)CN[C@H](C)[C@@H](O)[C@]1(C)O [Example E-138] | 4.32 | 40 | 4.06 |
| CC[C@H]1OC(=O)[C@H](C)[C@@H](O[C@H]2C[C@@](C)(OC)[C@](O)(CNC3CCC3)[C@H](C)O2)[C@H](C)[C@@H](O[C@@H]2O[C@H](C)C[C@H](N(C)C)[C@H]2Oc2ccccc2)[C@](C)(O)C[C@@H](C)CN[C@H](C)[C@@H](O)[C@]1(C)O [Example E-141] | 5.15 | 16 | 4.72 |
| CC[C@H]1OC(=O)[C@H](C)[C@@H](O[C@H]2C[C@@](C)(OC)[C@](O)(CNC(C)C)[C@H](C)O2)[C@H](C)[C@@H](O[C@@H]2O[C@H](C)C[C@H](N(C)C)[C@H]2Oc2ccccc2)[C@](C)(O)C[C@@H](C)CN[C@H](C)[C@@H](O)[C@]1(C)O [Example E-142] | 5.40 | 16 | 4.74 |
| CC[C@H]1OC(=O)[C@H](C)[C@@H](O[C@H]2C[C@@](C)(OC)[C@](O)(CN(C)CCN(C)C)[C@H](C)O2)[C@H](C)[C@@H](O[C@@H]2O[C@H](C)C[C@H](N(C)C)[C@H]2Oc2ccccc2)[C@](C)(O)C[C@@H](C)CN[C@H](C)[C@@H](O)[C@]1(C)O [Example E-143] | 4.47 | 40 | 4.07 |
| CC[C@H]1OC(=O)[C@H](C)[C@@H](O[C@H]2C[C@@](C)(OC)[C@](O)(CNCCN(C)C)[C@H](C)O2)[C@H](C)[C@@H](O[C@@H]2O[C@H](C)C[C@H](N(C)C)[C@H]2Oc2ccccc2)[C@](C)(O)C[C@@H](C)CN[C@H](C)[C@@H](O)[C@]1(C)O [Example E-144] | 5.10 | 40 | 4.06 |
| CC[C@H]1OC(=O)[C@H](C)[C@@H](O[C@H]2C[C@@](C)(OC)[C@](O)(CNCCOC)[C@H](C)O2)[C@H](C)[C@@H](O[C@@H]2O[C@H](C)C[C@H](N(C)C)[C@H]2Oc2ccccc2)[C@](C)(O)C[C@@H](C)CN[C@H](C)[C@@H](O)[C@]1(C)O [Example E-145] | 4.77 | >250 | 4.38 |
| CC[C@H]1OC(=O)[C@H](C)[C@@H](O[C@H]2C[C@@](C)(OC)[C@](O)(CNCCCOC)[C@H](C)O2)[C@H](C)[C@@H](O[C@@H]2O[C@H](C)C[C@H](N(C)C)[C@H]2Oc2ccccc2)[C@](C)(O)C[C@@H](C)CN[C@H](C)[C@@H](O)[C@]1(C)O [Example E-146] | 4.92 | 40 | 4.35 |
| CCCNC[C@]1(O)[C@H](C)O[C@@H](O[C@H]2[C@H](C)[C@@H](O[C@@H]3O[C@H](C)C[C@H](N(C)Cc4ccc(OC)cc4)[C@H]3Oc3ccccc3)[C@](C)(O)C[C@@H](C)CN[C@H](C)[C@@H](O)[C@](C)(O)[C@@H](CC)OC(=O)[C@@H]2C)C[C@@]1(C)OC [Example E-147] | 5.22 | 4 | 5.30 |
| CCCNC[C@]1(O)[C@H](C)O[C@@H](O[C@H]2[C@H](C)[C@@H](O[C@@H]3O[C@H](C)C[C@H](N(C)Cc4ccccc4)[C@H]3Oc3ccccc3)[C@](C)(O)C[C@@H](C)CN[C@H](C)[C@@H](O)[C@](C)(O)[C@@H](CC)OC(=O)[C@@H]2C)C[C@@]1(C)OC [Example E-148] | 5.70 | 1 | 6.00 |
| CCCNC[C@]1(O)[C@H](C)O[C@@H](O[C@H]2[C@H](C)[C@@H](O[C@@H]3O[C@H](C)C[C@H](N(C)Cc4cccnc4)[C@H]3Oc3ccccc3)[C@](C)(O)C[C@@H](C)CN[C@H](C)[C@@H](O)[C@](C)(O)[C@@H](CC)OC(=O)[C@@H]2C)C[C@@]1(C)OC [Example E-149] | 5.00 | 2 | 5.22 |
